# Patent US20230097707A1, “METHODS AND ARTICLES FOR KEEPING FOOD FRESHER FOR LONGER AND SHELF-LIFE EXTENSION TO ENHANCE FOOD SECURITY AND SAFETY” (priority 2021, published 2023)
# Experiments:
# [1] = small animal oral toxicity test; assay type: in vivo; details: albino rat, aqueous solutions derived from concentrate (EPA/MRID)
# Text: Example 1 is a small animal oral toxicity test of 3-(tri-methoxysilyl)propyldimethyl octadecyl ammonium chloride in aqueous solutions derived from concentrate. The small animal was an albino rat (EPA/MRID.) The result acute oral LD50 at 12.27 g (grams) per kg (kilogram.) That is, the lethal dose in 50% of the test subjects 12.27 grams per kilogram of body weight. This translates to a 100 kg person ingesting 1.227 kg of the raw material (or 1723 liters) at one time. The monomer poses no ingestion hazard.
# [2] = test system: Staphylococcus aureus ATCC 6538; details: coated paper, 0.15% by weight of BKC; cited from earlier work
# [3] = test system: Escherichia coli ATCC 8739; details: coated paper, 0.15% by weight of BKC; cited from earlier work
Compound,acute oral LD50 [1],inhibition [2] [%],inhibition [3] [%]
"CCCCCCCCCCCCCCCCCC[N+](C)(C)CCC[Si](OC)(OC)OC.[Cl-] [1-Octadecanaminium, N,N-dimethyl-N-[3-(trimethoxysilyl)propyl]-, chloride (1:1)]",12.27 g (grams) per kg (kilogram.),,
"N-Alkyl-N-benzyl-N,N-dimethylammonium chloride [BKC]",,~100,~100
